Reference: US20150011566A1, “N-PHENYLPIPERAZINE DERIVATIVES THAT ARE ANTAGONISTS OF A1A, A1D ADRENOCEPTORS AND 5-HT1A RECEPTORS FOR THE TREATMENT OF BENIGN PROSTATE HYPERPLASIA, PHARMACEUTICAL COMPOSITIONS CONTAINING THE SAME” (UNIVERSIDADE FEDERAL DO RIO DE JANEIRO-UFRJ, priority 2012, published 2015)
Marks after values point to notes of the source that are not given here.

Tests used:
Type in all cases: cell-based
5-HT1A receptors = molecular target: T1, 5-HT1A receptors (Homo sapiens, UniProt P08908); experiment: Cell proliferation in vitro, DU-145 cells stimulated with 5-HT (MTT); details: for Proliferation percentage in relation to basel (100%) in the presence of LDT's, 5HT1A: 48 h; for inhibition of the effect of the 5-HT1A receptors stimulus on proliferation: LDT3 50 nM, LDT66 20 nM
T1 construct: endogenous in cells; host or cells: DU-145
T1 sequence (P08908 1-422): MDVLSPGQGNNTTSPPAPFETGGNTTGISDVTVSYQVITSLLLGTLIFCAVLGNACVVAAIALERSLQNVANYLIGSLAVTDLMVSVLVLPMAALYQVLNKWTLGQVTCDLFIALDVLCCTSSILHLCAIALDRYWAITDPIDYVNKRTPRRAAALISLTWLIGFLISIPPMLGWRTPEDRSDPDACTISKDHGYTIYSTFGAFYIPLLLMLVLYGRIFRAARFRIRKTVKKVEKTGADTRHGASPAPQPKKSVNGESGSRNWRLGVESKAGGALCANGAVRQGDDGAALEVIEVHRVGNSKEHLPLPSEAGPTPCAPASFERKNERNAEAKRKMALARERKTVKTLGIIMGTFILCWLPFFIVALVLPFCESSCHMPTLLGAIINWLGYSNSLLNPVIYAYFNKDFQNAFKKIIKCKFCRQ
Experimental: (§1) Human prostate cancer cells (DU-145) were cultured in medium (RPMI 1640) until confluence. Then the cells were dissociated, plated (5×10^3 cells/well) and maintained in medium free of fetal bovine serum for 24 hours. […] Cell proliferation was assessed by using the MTT technique (MOSMANN, T. Immunol Methods. 16; 65 (1-2):55-63, 1983).

α1D receptors = molecular target: T2, α1D receptors (Homo sapiens, UniProt P25100); experiment: Cell proliferation in vitro, DU-145 cells stimulated with phenylephrine (MTT); details: for Proliferation percentage in relation to basel (100%) in the presence of LDT's, α1D: 48 h; for inhibition of the effect of the α1D receptors stimulus on proliferation: LDT3 50 nM, LDT66 20 nM
T2 construct: endogenous in cells; host or cells: DU-145
T2 sequence (P25100 1-572): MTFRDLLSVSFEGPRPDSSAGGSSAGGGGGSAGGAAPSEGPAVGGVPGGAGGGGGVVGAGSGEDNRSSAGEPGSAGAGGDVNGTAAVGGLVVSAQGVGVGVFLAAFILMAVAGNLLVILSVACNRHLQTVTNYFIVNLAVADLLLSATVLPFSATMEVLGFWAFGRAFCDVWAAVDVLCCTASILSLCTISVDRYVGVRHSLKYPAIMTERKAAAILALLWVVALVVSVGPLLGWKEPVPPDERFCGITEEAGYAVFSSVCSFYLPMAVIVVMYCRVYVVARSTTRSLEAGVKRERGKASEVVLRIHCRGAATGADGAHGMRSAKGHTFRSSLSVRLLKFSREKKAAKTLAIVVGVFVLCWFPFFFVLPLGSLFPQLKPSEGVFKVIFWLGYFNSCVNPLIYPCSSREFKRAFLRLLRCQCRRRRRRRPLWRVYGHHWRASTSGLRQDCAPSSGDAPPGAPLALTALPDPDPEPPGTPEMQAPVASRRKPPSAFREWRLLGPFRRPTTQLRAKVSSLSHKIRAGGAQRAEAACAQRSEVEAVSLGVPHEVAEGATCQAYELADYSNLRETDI
Experimental: as §1

α1D adrenoceptors = molecular target: T3, α1D adrenoceptors (Rattus norvegicus, UniProt P23944); experiment: Phenylephrine-induced contraction inhibition in rat aorta (isometric contraction, Schild KB); details: ratio of EC50 in presence and absence of test substance, 2 nM
T3 construct: the rat thoracic aorta corresponds to a tissue expressing mainly α1D-adrenoceptors; from tissue; host or cells: rat thoracic aorta rings
T3 sequence (P23944 1-561): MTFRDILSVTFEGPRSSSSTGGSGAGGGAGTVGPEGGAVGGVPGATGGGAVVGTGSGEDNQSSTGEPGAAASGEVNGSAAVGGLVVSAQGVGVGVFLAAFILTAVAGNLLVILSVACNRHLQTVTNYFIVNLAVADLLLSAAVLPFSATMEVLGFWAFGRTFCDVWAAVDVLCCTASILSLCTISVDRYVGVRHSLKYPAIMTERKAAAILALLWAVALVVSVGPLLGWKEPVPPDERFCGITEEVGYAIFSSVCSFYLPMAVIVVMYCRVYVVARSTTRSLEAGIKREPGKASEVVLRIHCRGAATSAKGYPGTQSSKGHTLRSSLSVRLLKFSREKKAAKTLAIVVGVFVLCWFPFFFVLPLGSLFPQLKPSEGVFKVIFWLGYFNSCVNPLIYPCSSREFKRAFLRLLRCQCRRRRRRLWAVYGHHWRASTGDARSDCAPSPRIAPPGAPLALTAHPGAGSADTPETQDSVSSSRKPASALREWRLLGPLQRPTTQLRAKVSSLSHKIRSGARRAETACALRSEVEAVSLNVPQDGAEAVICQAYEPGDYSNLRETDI

[1] = DU-145, 5-HT 1 μM + test substance 50 nM
[2] = DU-145, phenylephrine 3 μM + test substance 50 nM

Row | Structure (SMILES) | Proliferation percentage in relation to basel (100%) in the presence of LDT's, 5HT1A (5-HT1A receptors; [1]) | inhibition of the effect of the 5-HT1A receptors stimulus on proliferation (5-HT1A receptors) | Proliferation percentage in relation to basel (100%) in the presence of LDT's, α1D (α1D receptors; [2]) | inhibition of the effect of the α1D receptors stimulus on proliferation (α1D receptors) | other results
1 | CCCCCCN1CCN(c2ccccc2OC)CC1 [LDT 66] | 110.8 ± 7.7^b % | inhibited the effect | 76 ± 7.7^a % | inhibited the effect | –
2 | COc1ccc(CCN2CCN(c3ccccc3OC)CC2)cc1OC [LDT 5] | 118.8 ± 9.9% | – | 117.3 ± 8.9% | – | –
3 | CCOc1ccccc1N1CCN(CCc2ccc(OC)c(OC)c2)CC1 [LDT 245] | – | – | – | – | CR ± EPM (α1D adrenoceptors): 3.9 ± 1.0
4 | CCOc1ccccc1N1CCN(CCc2ccc3c(c2)OCO3)CC1 [LDT 8] | – | – | – | – | Proliferation percentage in relation to basel (100%) in the presence of LDT's, 5HT1A (5-HT1A receptors; DU-145, 5-HT 1 μM + test substance 5 nM): 138.4 ± 42.9%; Proliferation percentage in relation to basel (100%) in the presence of LDT's, α1D (α1D receptors; DU-145, phenylephrine 3 μM + test substance 5 nM): 124.05 ± 9.6%
5 | COc1cccc(CCN2CCN(c3ccccc3OC)CC2)c1 [LDT 3] | 96.9 ± 5.8^b % | inhibited the effect | – | inhibited the effect | Proliferation percentage in relation to basel (100%) in the presence of LDT's, α1D (α1D receptors; DU-145, phenylephrine 3 μM + test substance 500 nM): 99.2 ± 5.8^a %
